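Interpolation was linear, between the two tested concentrations surrounding the appropriate level; five concentrations were tested over 48 hours in 96-well plates. The concentration for full growth arrest is given as TGI.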
Tests used:
Test in all cases: growth of human tumour cells (NCI), 48 h
[1] = tested on: OVCAR-8 ovarian
[2] = tested on: SR leukemia
[3] = tested on: NCI-H522 lung
[4] = tested on: UACC-257 melanoma
[5] = tested on: 786-0 renal
[6] = tested on: U251 CNS
[7] = tested on: SNB-75 CNS
[8] = tested on: SF-295 CNS
[9] = tested on: SK-MEL-2 melanoma
[10] = tested on: RPMI-8226 leukemia

Structure (SMILES) | TGI [1] [µM] | TGI [2] [µM] | TGI [3] [µM] | TGI [4] [µM] | TGI [5] [µM] | TGI [6] [µM] | TGI [7] [µM] | TGI [8] [µM] | TGI [9] [µM] | TGI [10] [µM]
O=[N+]([O-])c1ccc(NC(=S)N=Nc2c(O)[nH]c3ccc(Br)cc23)cc1 | 20 | 42.7 | 27.5 | 29.8 | 21.8 | 21.9 | 30.7 | 22 | 28.4 | –
OC1(c2ccc(Cl)cc2)c2ccc3ccccc3c2C2=N[C@H]3CCCC[C@@H]3N21 (some centres undefined) | 3.45 | – | > 100 | – | – | 27.9 | – | 18.1 | > 100 | 31
CC(=O)OCC(OC(C)=O)C1C[C@H]2O[C@@H]3[C@H](C[C@H]2O1)O[C@@]1(C[C@@H]3C)C[C@H](C)[C@@H]2O[C@]3(C[C@@H]2O1)C[C@H]1O[C@H]2[C@H](C)[C@H]4OC(=O)CC5CC[C@H]6OC7[C@H]8O[C@]9(CC[C@H]%10CC(O)(CO)[C@H](CC[C@H]%11C[C@@H](C)C(O)(CO)C(C[C@@H]4O[C@H]2C[C@H]1O3)O%11)O%10)CC8O[C@@H]7[C@@H](O9)[C@H]6O5 (some centres undefined) | > 0.271 | > 1 | 0.00451 | > 1 | > 1 | > 1 | > 1 | > 0.301 | > 1 | –
O=C(N/N=C/c1ccco1)c1cc(I)cc(I)c1O | > 50 | – | > 50 | – | 37.4 | – | > 50 | – | 19.7 | 43
c1ccc2c3c(c(N4CCOCC4)nc2c1)CCCC3 | > 100 | > 100 | > 100 | > 100 | 92.9 | > 100 | 83.1 | > 100 | > 100 | –
CCOC(=O)/C(C#N)=N\Nc1ccc(-n2c(C)nc3ccccc3c2=O)cc1 | > 100 | > 100 | – | > 100 | > 100 | > 100 | > 100 | > 100 | > 100 | > 100
CCC(=O)Oc1c2ccsc2c(OC(=O)CC)c2ccsc12 | 1.4 | 0.806 | 2.06 | 0.333 | 4.33 | 1.65 | 0.341 | 0.675 | 1.39 | –
COc1cc(/C=C\C(=O)O)ccc1OCc1ccccc1 | > 100 | > 100 | > 100 | > 100 | > 100 | > 100 | – | > 100 | > 100 | > 100
COc1ccc(Nc2nc3c([nH]2)c(=O)n(C)c(=O)n3C)cc1 | > 10 | > 10 | – | > 10 | > 10 | – | > 10 | > 10 | – | > 10
Nc1c(C(=O)c2ccc(Cl)cc2)[nH]c(NCc2ccccc2)c1C(=S)Nc1ccccc1 | 3.37 | – | 3.38 | 3.26 | 3.14 | 3.13 | 3.33 | 3.32 | 3.58 | 4.34
CN(C)CCn1c(=O)c2ccc(NCCCN(C)CCCNc3ccc4c(=O)n(CCN(C)C)c(=O)n5c6ccc([N+](=O)[O-])cc6c(=O)c3c45)c3c(=O)c4cc([N+](=O)[O-])ccc4n(c1=O)c23 | 0.431 | – | 0.134 | 2.13 | 0.385 | 0.124 | 0.195 | 0.594 | – | –
